In US11767322B2 (BRISTOL-MYERS SQUIBB COMPANY, priority 2020, dated 2023):
Where two headings read alike, the source gives them in different places.

How the values were obtained:
[1] = target: GST-tagged PIK3Cδ in complex with PIK3R1 (Homo sapiens, UniProt O00329); assay: PI3Kδ HTRF binding assay; conditions: HTRF probe displacement, 1 h at rt; read-out: PIK3CD IC50
[2] = tested on: MLKL phosphorylation in HT29-L23 human colorectal adenocarcinoma cells; assay: MLKL phosphorylation high-content assay; format: cell-based
[3] = HT29-L23 cells, necroptosis induced with TNFα, SMAC mimetic and Z-VAD, 6 h, maximal inhibition defined by Nec1s, read-out: pMLKL IC50
[4] = Table 22, compounds of the present invention, read-out: pMLKL IC50
[5] = read-out: pMLKL IC50, HT29-L23 cells, necroptosis induced with TNFα, SMAC mimetic and Z-VAD, 6 h, maximal inhibition defined by Nec1s
[6] = Homo sapiens, 6 h, HT29-L23 cells, necroptosis induced with TNFα, SMAC mimetic and Z-VAD, 6 h, maximal inhibition defined by Nec1s, read-out: pMLKL IC50
[7] = Homo sapiens, Table 22, compounds of the present invention, read-out: pMLKL IC50

Chain of GST-tagged PIK3Cδ in complex with PIK3R1 (O00329 whole entry): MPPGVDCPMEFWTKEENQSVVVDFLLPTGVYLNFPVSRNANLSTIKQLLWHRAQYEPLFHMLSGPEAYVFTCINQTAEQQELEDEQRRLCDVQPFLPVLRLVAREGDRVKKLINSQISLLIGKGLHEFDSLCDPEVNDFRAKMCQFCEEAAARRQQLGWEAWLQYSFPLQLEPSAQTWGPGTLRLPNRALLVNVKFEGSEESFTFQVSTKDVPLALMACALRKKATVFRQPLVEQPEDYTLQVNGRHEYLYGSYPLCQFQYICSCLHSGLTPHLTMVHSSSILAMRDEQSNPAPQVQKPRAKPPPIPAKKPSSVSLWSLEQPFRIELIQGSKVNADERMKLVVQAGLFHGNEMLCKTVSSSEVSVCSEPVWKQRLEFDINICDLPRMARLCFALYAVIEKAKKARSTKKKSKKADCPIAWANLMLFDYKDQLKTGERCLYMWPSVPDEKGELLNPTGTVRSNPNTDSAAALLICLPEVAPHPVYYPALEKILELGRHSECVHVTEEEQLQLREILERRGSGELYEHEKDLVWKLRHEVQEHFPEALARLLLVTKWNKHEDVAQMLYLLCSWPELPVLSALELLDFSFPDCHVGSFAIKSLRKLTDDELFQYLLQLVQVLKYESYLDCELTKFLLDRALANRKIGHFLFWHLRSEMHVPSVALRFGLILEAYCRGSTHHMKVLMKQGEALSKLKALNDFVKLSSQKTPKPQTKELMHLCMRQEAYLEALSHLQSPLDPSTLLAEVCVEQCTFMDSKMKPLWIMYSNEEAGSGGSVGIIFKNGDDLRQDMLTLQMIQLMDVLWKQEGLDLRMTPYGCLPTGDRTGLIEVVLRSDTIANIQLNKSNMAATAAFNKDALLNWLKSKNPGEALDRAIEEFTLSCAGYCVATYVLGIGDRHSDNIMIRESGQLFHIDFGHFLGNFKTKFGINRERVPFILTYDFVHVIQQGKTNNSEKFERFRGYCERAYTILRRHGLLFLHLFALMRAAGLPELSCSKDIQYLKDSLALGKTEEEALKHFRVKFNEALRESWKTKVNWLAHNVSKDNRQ
Chain of GST-tagged PIK3Cδ in complex with PIK3R1 (P27986 whole entry partner): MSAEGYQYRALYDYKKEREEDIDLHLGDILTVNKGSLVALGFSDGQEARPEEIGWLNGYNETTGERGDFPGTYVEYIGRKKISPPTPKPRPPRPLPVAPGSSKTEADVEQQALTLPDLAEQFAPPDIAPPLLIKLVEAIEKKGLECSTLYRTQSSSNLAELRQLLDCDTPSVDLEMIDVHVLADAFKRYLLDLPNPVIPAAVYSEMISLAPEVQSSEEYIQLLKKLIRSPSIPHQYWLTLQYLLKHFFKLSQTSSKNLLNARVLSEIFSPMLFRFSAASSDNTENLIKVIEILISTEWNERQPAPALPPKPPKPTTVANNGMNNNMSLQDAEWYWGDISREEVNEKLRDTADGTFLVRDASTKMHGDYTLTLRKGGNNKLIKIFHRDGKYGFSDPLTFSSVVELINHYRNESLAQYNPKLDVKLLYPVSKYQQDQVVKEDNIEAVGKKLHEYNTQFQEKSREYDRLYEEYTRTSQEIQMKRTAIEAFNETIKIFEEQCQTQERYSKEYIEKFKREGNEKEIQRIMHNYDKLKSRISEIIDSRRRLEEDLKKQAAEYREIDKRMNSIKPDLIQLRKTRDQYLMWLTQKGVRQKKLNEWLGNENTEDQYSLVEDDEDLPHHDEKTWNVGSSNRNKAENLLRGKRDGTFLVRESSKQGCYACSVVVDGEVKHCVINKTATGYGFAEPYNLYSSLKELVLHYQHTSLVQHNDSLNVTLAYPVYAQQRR

SMILES	IC50 [1] [nM]	IC50 [2, 6] [nM]	further results
Cc1cc(F)c(-c2ccn3nc(N)nc3c2)cc1C(=O)NCCC(O)c1ccc(C(F)(F)F)cc1 (racemic) [Example 2, 5-(2-amino-[1,2,4]triazolo[1,5-a]pyridin-7-yl)-4-fluoro-N-(3-hydroxy-3-(4-(trifluoromethyl)phenyl)propyl)-2-methylbenzamide]	> 15000	–	–
Cc1ccc(-c2ccn3nc(N)nc3c2)c(F)c1C(=O)NC(C)CC(O)c1ccc(Cl)cc1 (racemic) [Example 19, 3-(2-amino-[1,2,4]triazolo[1,5-a]pyridin-7-yl)-N-[4-(4-chlorophenyl)-4-hydroxybutan-2-yl]-2-fluoro-6-methylbenzamide]	> 15000	–	IC50 [2, 3]: 7.7 nM; IC50 [2, 4]: 7.7 nM
Cc1ccc(-c2ccn3nc(N)nc3c2)c(F)c1C(=O)NC(C)CC(O)c1ccc(Cl)cc1 (racemic) [Example 20, 3-(2-amino-[1,2,4]triazolo[1,5-a]pyridin-7-yl)-N-[4-(4-chlorophenyl)-4-hydroxybutan-2-yl]-2-fluoro-6-methylbenzamide]	> 15000	–	IC50 [2, 3]: 3.6 nM; IC50 [2, 4]: 3.6 nM
Cc1c(C(=O)NC(C)CC(O)c2ccc(Cl)cc2)cc(-c2ccn3nc(N)nc3c2)c(F)c1F (racemic) [Example 100, 5-(2-amino-[1,2,4]triazolo[1,5-a]pyridin-7-yl)-N-(4-(4-chlorophenyl)-4-hydroxybutan-2-yl)-3,4-difluoro-2-methylbenzamide]	> 15000	–	IC50 [2, 5]: 27 nM
Cc1c(C(=O)NC(CF)CC(O)c2ccc(Cl)cc2)cc(-c2ccn3nc(N)nc3c2)c(F)c1F (racemic) [Example 102, 5-(2-amino-[1,2,4]triazolo[1,5-a]pyridin-7-yl)-N-(4-(4-chlorophenyl)-1-fluoro-4-hydroxybutan-2-yl)-3,4-difluoro-2-methylbenzamide]	> 15000	–	IC50 [2, 3]: 7.6 nM
Cc1c(C(=O)NC(CF)CC(O)c2ccc(Cl)cc2)cc(-c2ccn3nc(N)nc3c2)c(F)c1F (racemic) [Example 103, 5-(2-amino-[1,2,4]triazolo[1,5-a]pyridin-7-yl)-N-(4-(4-chlorophenyl)-1-fluoro-4-hydroxybutan-2-yl)-3,4-difluoro-2-methylbenzamide]	> 15000	–	IC50 [2, 3]: 2060 nM
Cc1cc(F)c(-c2ccn3nc(N)nc3c2)cc1C(=O)NCCC(O)c1ccc(C(F)(F)F)cc1 (single isomer, unassigned) [Example 3, 5-(2-amino-[1,2,4]triazolo[1,5-a]pyridin-7-yl)-4-fluoro-N-(3-hydroxy-3-(4-(trifluoromethyl)phenyl)propyl)-2-methylbenzamide]	> 15000	–	–
Cc1cc(F)c(-c2ccn3nc(N)nc3c2)cc1C(=O)NCCC(O)c1ccc(C(F)(F)F)cc1 (single isomer, unassigned) [Example 4, 5-(2-amino-[1,2,4]triazolo[1,5-a]pyridin-7-yl)-4-fluoro-N-(3-hydroxy-3-(4-(trifluoromethyl)phenyl)propyl)-2-methylbenzamide]	> 15000	–	IC50 [2, 5]: 1 nM
Cc1ccc(-c2ccn3nc(N)nc3c2)c(F)c1C(=O)NC(CF)CC(O)c1ccc(Cl)cc1 (single isomer, unassigned) [Example 23, 3-(2-amino-[1,2,4]triazolo[1,5-a]pyridin-7-yl)-N-(4-(4-chlorophenyl)-1-fluoro-4-hydroxybutan-2-yl)-2-fluoro-6-methylbenzamide]	> 15000	–	–
Cc1ccc(-c2ccn3nc(N)nc3c2)c(F)c1C(=O)NC(CF)CC(O)c1ccc(Cl)cc1 (single isomer, unassigned) [Example 24, 3-(2-amino-[1,2,4]triazolo[1,5-a]pyridin-7-yl)-N-(4-(4-chlorophenyl)-1-fluoro-4-hydroxybutan-2-yl)-2-fluoro-6-methylbenzamide]	> 15000	–	–
Cc1ccc(-c2ccn3nc(N)nc3c2)c(F)c1C(=O)NCCC(O)c1ccc(Cl)cn1 (single isomer, unassigned) [Example 47, 3-(2-amino-[1,2,4]triazolo[1,5-a]pyridin-7-yl)-N-(3-(5-chloropyridin-2-yl)-3-hydroxypropyl)-2-fluoro-6-methylbenzamide]	> 15000	–	–
Cc1ccc(-c2ccn3nc(N)nc3c2)c(F)c1C(=O)NCCC(O)c1cccc(F)c1 (single isomer, unassigned) [Example 63, 3-(2-amino-[1,2,4]triazolo[1,5-a]pyridin-7-yl)-2-fluoro-N-(3-(3-fluorophenyl)-3-hydroxypropyl)-6-methylbenzamide]	13000	1.9	–
Cc1ccc(-c2ccn3nc(N)nc3c2)c(F)c1C(=O)NCCC(O)c1ccc(F)c(F)c1 (single isomer, unassigned) [Example 66, 3-(2-amino-[1,2,4]triazolo[1,5-a]pyridin-7-yl)-N-(3-(3,4-difluorophenyl)-3-hydroxypropyl)-2-fluoro-6-methylbenzamide]	> 15000	1.2	IC50 [2, 7]: 1.2 nM
Cc1ccc(-c2ccn3nc(N)nc3c2)c(F)c1C(=O)NCC(F)(F)C(O)c1ccc(Cl)c(Cl)c1 (single isomer, unassigned) [Example 112, 3-{2-amino-[1,2,4]triazolo[1,5-a]pyridin-7-yl}-N-[3-(3,4-dichlorophenyl)-2,2-difluoro-3-hydroxypropyl]-2-fluoro-6-methylbenzamide]	> 15000	–	–
Cc1ccc(-c2ccn3nc(N)nc3c2)c(F)c1C(=O)NCC(F)(F)C(O)c1ccc(Cl)c(Cl)c1 (single isomer, unassigned) [Example 113, 3-{2-amino-[1,2,4]triazolo[1,5-a]pyridin-7-yl}-N-[3-(3,4-dichlorophenyl)-2,2-difluoro-3-hydroxypropyl]-2-fluoro-6-methylbenzamide]	> 15000	–	–
Cc1ccc(-c2ccn3nc(N)nc3c2)c(F)c1C(=O)NC[C@H](F)[C@@H](O)c1ccc(Cl)cc1 (single isomer, unassigned) [Example 302]	> 15000	–	–
Cc1ccc(-c2ccn3nc(N)nc3c2)c(F)c1C(=O)NC[C@@H](F)[C@H](O)c1ccc(Cl)cc1 (single isomer, unassigned) [Example 303]	> 15000	–	–
Nc1nc2cc(-c3ccc(Cl)c(C(=O)NCC[C@@H](O)c4ccc(Cl)cc4)c3)ccn2n1 [Example 90, (R)-5-(2-amino-[1,2,4]triazolo[1,5-a]pyridin-7-yl)-2-chloro-N-(3-(4-chlorophenyl)-3-hydroxypropyl)benzamide]	> 15000	15	–
Nc1nc2cc(-c3ccc(Cl)c(C(=O)NCC[C@H](O)c4ccc(Cl)cc4)c3)ccn2n1 [Example 91, (S)-5-(2-amino-[1,2,4]triazolo[1,5-a]pyridin-7-yl)-2-chloro-N-(3-(4-chlorophenyl)-3-hydroxypropyl)benzamide]	8000	34	–
CC(CCNC(=O)c1cc(-c2ccn3nc(N)nc3c2)ccc1Cl)c1ccccc1 (stereo not shown) [Example 92, 5-(2-amino-[1,2,4]triazolo[1,5-a]pyridin-7-yl)-2-chloro-N-(3-phenylbutyl)benzamide]	5200	11	IC50 [2, 7]: 11 nM
CC(O)(CCNC(=O)c1cc(-c2ccn3nc(N)nc3c2)ccc1Cl)c1ccccc1 (stereo not shown) [Example 93, 5-(2-amino-[1,2,4]triazolo[1,5-a]pyridin-7-yl)-2-chloro-N-(3-hydroxy-3-phenylbutyl)benzamide]	11000	256	–
Cc1ccc(-c2ccn3nc(N)nc3c2)c(F)c1C(=O)NCC[C@H](O)c1ccc(C#N)cc1 [Example 139, 3-{2-amino-[1,2,4]triazolo[1,5-a]pyridin-7-yl}-N-[(3S)-3-(4-cyanophenyl)-3-hydroxypropyl]-2-fluoro-6-methylbenzamide]	> 15000	7.4	–
Cc1ccc(-c2ccn3nc(N)nc3c2)c(F)c1C(=O)NCCC(=O)c1ccc(Cl)cc1 [Example 143, 3-{2-amino-[1,2,4]triazolo[1,5-a]pyridin-7-yl}-N-[3-(4-chlorophenyl)-3-oxopropyl]-2-fluoro-6-methylbenzamide]	> 15000	–	IC50 ([2]; Homo sapiens, 6 h, read-out: pMLKL IC50, HT29-L23 cells, necroptosis induced with TNFα, SMAC mimetic and Z-VAD, 6 h, maximal inhibition defined by Nec1s): 2.4 nM
Cc1cc(Cl)c(-c2ccn3nc(N)nc3c2)cc1C(=O)NCC[C@H](O)c1ccc(Cl)cc1 [Example 144, (S)-5-(2-amino-[1,2,4]triazolo[1,5-a]pyridin-7-yl)-4-chloro-N-(3-(4-chlorophenyl)-3-hydroxypropyl)-2-methylbenzamide]	> 15000	4.2	–
Nc1nc2cc(-c3c(F)ccc(C(=O)NCC[C@H](O)c4ccc(Cl)cc4)c3F)ccn2n1 [Example 219, (S)-3-(2-amino-[1,2,4]triazolo[1,5-a]pyridin-7-yl)-N-(3-(4-chlorophenyl)-3-hydroxypropyl)-2,4-difluorobenzamide]	> 15000	42	–
Nc1nc2cc(-c3c(F)ccc(C(=O)NCC[C@@H](O)c4ccc(Cl)cc4)c3F)ccn2n1 [Example 220, (R)-3-(2-amino-[1,2,4]triazolo[1,5-a]pyridin-7-yl)-N-(3-(4-chlorophenyl)-3-hydroxypropyl)-2,4-difluorobenzamide]	> 15000	36	–
Cc1ccc(-c2ccn3nc(N)nc3c2)c(F)c1C(=O)NCC(F)(F)C(O)C1CC(F)(F)C1 (stereo not shown) [Example 258, 3-(2-amino-[1,2,4]triazolo[1,5-a]pyridin-7-yl)-N-(3-(3,3-difluorocyclobutyl)-2,2-difluoro-3-hydroxypropyl)-2-fluoro-6-methylbenzamide]	> 15000	–	–
Cc1ccc(-c2ccn3nc(N)nc3c2)c(F)c1C(=O)NCC(F)(F)C(O)C1CC(F)(F)C1 (stereo not shown) [Example 259, 3-(2-amino-[1,2,4]triazolo[1,5-a]pyridin-7-yl)-N-(3-(3,3-difluorocyclobutyl)-2,2-difluoro-3-hydroxypropyl)-2-fluoro-6-methylbenzamide]	> 15000	–	–
